Biological target: T1, catalytic domain of human Bub1 (amino acids 704-1085) (Homo sapiens, UniProt O43683)
T1 construct: catalytic domain of human Bub1 (amino acids 704-1085); His6 (N); made in house; host or cells: Hi5 insect cells
Test: Bub1 kinase assay (TR-FRET)
Type: biochemical
Settings: TR-FRET; ATP 10 μM, peptide substrate 1 μM; 60 min at 22° C.; average or median if tested more than once; read-out: Inhibition of Bub1 kinase IC50
Excerpt: Bub1-inhibitory activities of compounds described in the present invention were quantified using a time-resolved fluorescence energy transfer (TR-FRET) kinase assay which measures phosphorylation of the synthetic peptide Biotin-Ahx-VLLPKKSFAEPG (C-terminus in amide form), purchased from e.g. Biosyntan (Berlin, Germany) by the (recombinant) catalytic domain of human Bub1 (amino acids 704-1085), expressed in Hi5 insect cells with an N-terminal His6-tag and purified by affinity—(Ni-NTA) and size exclusion chromatography.
In a typical assay 11 different concentrations of each compound (0.1 nM, 0.33 nM, 1.1 nM, 3.8 nM, 13 nM, 44 nM, 0.15 μM, 0.51 μM, 1.7 μM, 5.9 μM and 20 μM) were tested in duplicate within the same microtiter plate. To this end, 100-fold concentrated compound solutions (in DMSO) were previously prepared by serial dilution (1:3.4) of 2 mM stocks in a clear low volume 384-well source microtiter plate (Greiner Bio-One, Frickenhausen, Germany), from which 50 nl of compounds were transferred into a black low volume test microtiter plate from the same supplier. Subsequently, 2 μL of Bub1 (the final concentration of Bub1 was adjusted depending on the activity of the enzyme lot in order to be within the linear dynamic range of the assay: typically ˜200 ng/mL were used) in aqueous assay buffer [50 mM Tris/HCl pH 7.5, 10 mM magnesium chloride (MgCl2), 200 mM potassium chloride (KCl), 1.0 mM dithiothreitol (DTT), 0.1 mM sodium ortho-vanadate, 1% (v/v) glycerol, 0.01% (w/v) bovine serum albumine (BSA), 0.005% (v/v) Trition X-100 (Sigma), 1× Complete EDTA-free protease inhibitor mixture (Roche)] were added to the compounds in the test plate and the mixture was incubated for 15 min at 22° C. to allow pre-equilibration of the putative enzyme-inhibitor complexes before the start of the kinase reaction, which was initiated by the addition of 3 μL 1.67-fold concentrated solution (in assay buffer) of adenosine-tri-phosphate (ATP, 10 μM final concentration) and peptide substrate (1 μM final concentration). The resulting mixture (5 μL final volume) was incubated at 22° C. during 60 min., and the reaction was stopped by the addition of 5 μL of an aqueous EDTA-solution (50 mM EDTA, in 100 mM HEPES pH 7.5 and 0.2% (w/v) bovine serum albumin) which also contained the TR-FRET detection reagents (0.2 μM streptavidin-XL665 [Cisbio Bioassays, Codolet, France] and 1 nM anti-phospho-Serine antibody [Merck Millipore, cat. #35-002] and 0.4 nM LANCE EU-W1024 labeled anti-mouse IgG antibody [Perkin-Elmer, product no. AD0077, alternatively a Terbium-cryptate-labeled anti-mouse IgG antibody from Cisbio Bioassays can be used]). The stopped reaction mixture was further incubated 1 h at 22° C. in order to allow the formation of complexes between peptides and detection reagents. Subsequently, the amount of product was evaluated by measurement of the resonance energy transfer from the Eu-chelate-antibody complex recognizing the Phosphoserine residue to the streptavidin-XL665 bound to the biotin moiety of the peptide. To this end, the fluorescence emissions at 620 nm and 665 nm after excitation at 330-350 nm were measured in a TR-FRET plate reader, e.g. a Rubystar or Pherastar (both from BMG Labtechnologies, Offenburg, Germany) or a Viewlux (Perkin-Elmer) and the ratio of the emissions (665 nm/[…]) was taken as indicator for the amount of phosphorylated substrate. The data were normalised using two sets of control wells for high—(=enzyme reaction without inhibitor=0%=Minimum inhibition) and low—(=all assay components without enzyme=100%=Maximum inhibition) Bub1 activity. IC50 values were calculated by fitting the normalized inhibition data to a 4-parameter logistic equation (Minimum, Maximum, IC50, Hill; Y=Max+(Min−Max)/(1+(X/IC50)Hill)).

T1 sequence (O43683 704-1085): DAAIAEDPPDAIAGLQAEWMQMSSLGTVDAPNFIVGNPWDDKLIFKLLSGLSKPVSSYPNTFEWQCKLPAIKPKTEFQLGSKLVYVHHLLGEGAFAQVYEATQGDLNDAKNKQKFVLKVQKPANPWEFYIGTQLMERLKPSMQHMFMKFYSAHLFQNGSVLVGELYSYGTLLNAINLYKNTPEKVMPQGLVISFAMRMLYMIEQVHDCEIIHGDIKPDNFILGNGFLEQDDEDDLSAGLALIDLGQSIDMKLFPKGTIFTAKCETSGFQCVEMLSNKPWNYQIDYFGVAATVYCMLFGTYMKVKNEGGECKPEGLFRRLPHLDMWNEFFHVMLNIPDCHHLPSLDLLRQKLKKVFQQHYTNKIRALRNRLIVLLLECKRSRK

SMILES	IC50
CC(C)(C)OC(=O)N1CC(=O)c2c([nH]c(-c3ccnc(NC(=O)[C@@H]4C[C@@H]4F)c3)c2Nc2ccccc2)C1 (relative stereo) [Example 120, tert-Butyl 2-[2-({[rel-(1S,2S)-2-fluorocyclopropyl]carbonyl}amino)pyridin-4-yl]-4-oxo-3-(phenylamino)-1,4,5,7-tetrahydro-6H-pyrrolo[2,3-c]pyridine-6-carboxylate]	9 nM
CC(=O)N1CC(=O)c2c([nH]c(-c3ccncc3OCC(F)F)c2Nc2ccccc2)C1 [Example 228, 6-Acetyl-3-anilino-2-[3-(2,2-difluoroethoxy)pyridin-4-yl]-1,5,6,7-tetrahydro-4H-pyrrolo[2,3-c]pyridin-4-one]	33 nM
CC(C)S(=O)(=O)N1CC(=O)c2c([nH]c(-c3ccncc3OCC(F)(F)F)c2Nc2ccccc2)C1 [Example 247, 3-(Phenylamino)-6-(propan-2-ylsulfonyl)-2-[3-(2,2,2-trifluoroethoxy)pyridin-4-yl]-1,5,6,7-tetrahydro-4H-pyrrolo[2,3-c]pyridin-4-one]	65 nM
CC(=O)Nc1cc(-c2[nH]c3c(c2Nc2ccc(C)cc2)C(=O)CNC3)ccn1 [Example 303, N-(4-{3-[(4-Methylphenyl)amino]4-oxo-4,5,6,7-tetrahydro-1H-pyrrolo[2,3-c]pyridin-2-yl}pyridin-2-yl)acetamide]	1150 nM
O=C(Nc1cc(-c2[nH]c3c(c2Nc2ccccc2)C(=O)COC3)ccn1)c1cncs1 [Example 51, N-{4-[4-Oxo-3-(phenylamino)-1,4,5,7-tetrahydropyrano[3,4-b]pyrrol-2-yl]pyridin-2-yl}-1,3-thiazole-5-carboxamide]	44 nM
C[S+]([O-])CCNC(=O)N1CC(=O)c2c([nH]c(-c3ccncc3)c2Nc2ccccc2)C1 (racemic) [Example 88, N-{2-[(RS)-Methylsulfinyl]ethyl}4-oxo-3-(phenylamino)-2-(pyridin-4-yl)-1,4,5,7-tetrahydro-6H-pyrrolo[2,3-c]pyridine-6-carboxamide]	21 nM
COC(=O)N1CC(=O)c2c([nH]c(-c3ccnc(NC(=O)[C@H]4C[C@H]4F)c3)c2Nc2ccccc2)C1 [Example 141, Methyl 3-anilino-2-[2-({[(1R,2R)-2-fluorocyclopropyl]carbonyl}amino)pyridin-4-yl]-4-oxo-1,4,5,7-tetrahydro-6H-pyrrolo[2,3-c]pyridine-6-carboxylate]	7 nM
CC(=O)N1CC(=O)c2c([nH]c(-c3ccncc3)c2Nc2ccccc2)C1 [Example 7, 6-Acetyl-3-(phenylamino)-2-(pyridin-4-yl)-1,5,6,7-tetrahydro-4H-pyrrolo[2,3-c]pyridin-4-one]	4 nM
CC(C)S(=O)(=O)N1CC(=O)c2c([nH]c(-c3ccncc3OCC(F)F)c2Nc2ccccc2)C1 [Example 241, 2-[3-(2,2-Difluoroethoxy)pyridin-4-yl]-3-(phenylamino)-6-(propan-2-ylsulfonyl)-1,5,6,7-tetrahydro-4H-pyrrolo[2,3-c]pyridin-4-one]	13 nM
CC(C)(C)C(=O)N1CC(=O)c2c([nH]c(-c3ccnc(NC(=O)[C@@H]4C[C@@H]4F)c3)c2Nc2ccccc2)C1 [Example 213]	2 nM
CSCCC(=O)N1CC(=O)c2c([nH]c(-c3ccnc(NC(C)=O)c3)c2Nc2ccccc2)C1 [Example 192]	30 nM
CN1CCN(C(=O)N2CC(=O)c3c([nH]c(-c4ccncc4OCC(F)F)c3Nc3ccccc3)C2)CC1 [Example 240, 2-[3-(2,2-Difluoroethoxy)pyridin-4-yl]-6-[(4-methylpiperazin-1-yl)carbonyl]-3-(phenylamino)-1,5,6,7-tetrahydro-4H-pyrrolo[2,3-c]pyridin-4-one]	66 nM
O=C(Nc1cc(-c2[nH]c3c(c2Nc2ccccc2)C(=O)COC3)ccn1)c1ccc(F)cc1 [Example 52, 4-Fluoro-N-{4-[4-oxo-3-(phenylamino)-1,4,5,7-tetrahydropyrano[3,4-b]pyrrol-2-yl]pyridin-2-yl}benzamide]	10 nM
COC(=O)N1CC(=O)c2c([nH]c(-c3ccncc3OC)c2Nc2ccccc2)C1 [Example 104, Methyl 2-(3-methoxypyridin-4-yl)-4-oxo-3-(phenylamino)-1,4,5,7-tetrahydro-6H-pyrrolo[2,3-c]pyridine-6-carboxylate]	9 nM
CC(=O)N1CC(=O)c2c([nH]c(-c3ccncc3OCC3CC3)c2Nc2ccccc2)C1 [Example 231, 6-Acetyl-2-[3-(cyclopropylmethoxy)pyridin-4-yl]-3-(phenylamino)-1,5,6,7-tetrahydro-4H-pyrrolo[2,3-c]pyridin-4-one]	40 nM
O=C1CNCc2[nH]c(-c3ccnc(NC(=O)[C@@H]4C[C@@H]4F)c3)c(Nc3ccccc3)c21 [Example 197, (1S,2S)—N-[4-(3-anilino-4-oxo-4,5,6,7-tetrahydro-1H-pyrrolo[2,3-c]pyridin-2-yl)pyridin-2-yl]-2-fluorocyclopropanecarboxamide]	40 nM
O=C1CN(S(=O)(=O)C2CC2)Cc2[nH]c(-c3ccncc3)c(Nc3ccccc3)c21 [Example 66, 6-(Cyclopropylsulfonyl)-3-(phenylamino)-2-(pyridin-4-yl)-1,5,6,7-tetrahydro-4H-pyrrolo[2,3-c]pyridin-4-one]	9 nM
COc1ccc(C(=O)Nc2cc(-c3[nH]c4c(c3Nc3ccccc3)C(=O)CN(C(=O)N3CCOCC3)C4)ccn2)cc1F [Example 291, 3-Fluoro-4-methoxy-N-4-[6-(morpholin-4-ylcarbonyl)-4-oxo-3-(phenylamino)-4,5,6,7-tetrahydro-1H-pyrrolo[2,3-c]pyridin-2-yl]pyridin-2-ylbenzamide]	6 nM
CNC(=O)N1CC(=O)c2c([nH]c(-c3ccncc3OCC3CC3)c2Nc2ccccc2)C1 [Example 251, 2-[3-(Cyclopropylmethoxy)pyridin-4-yl]-N-methyl-4-oxo-3-(phenylamino)-1,4,5,7-tetrahydro-6H-pyrrolo[2,3-c]pyridine-6-carboxamide]	12 nM
CCC(=O)Nc1cc(-c2[nH]c3c(c2Nc2ccccc2)C(=O)COC3)ccn1 [Example 44, N-{4-[4-Oxo-3-(phenylamino)-1,4,5,7-tetrahydropyrano[3,4-b]pyrrol-2-yl]pyridin-2-yl}propanamide]	50 nM
CC(=O)Nc1cc(-c2[nH]c3c(c2Nc2ccc(F)cc2)C(=O)CN(C(=O)OC(C)C)C3)ccn1 [Example 316, Propan-2-yl 2-[2-(acetylamino)pyridin-4-yl]-3-[(4-fluorophenyl)amino]-4-oxo-1,4,5,7-tetrahydro-6H-pyrrolo[2,3-c]pyridine-6-carboxylate]	25 nM
CC(=O)Nc1cc(-c2[nH]c3c(c2Nc2ccccc2)C(=O)CN(C(=O)c2cnc[nH]2)C3)ccn1 [Example 113, N-{4-[6-(1H-Imidazol-5-ylcarbonyl)-4-oxo-3-(phenylamino)-4,5,6,7-tetrahydro-1H-pyrrolo[2,3-c]pyridin-2-yl]pyridin-2-yl}acetamide]	34 nM
O=C1CN(C(=O)c2ccncc2)Cc2[nH]c(-c3ccnc(NC(=O)[C@@H]4C[C@@H]4F)c3)c(Nc3ccccc3)c21 [Example 200, (1S,2S)-2-Fluoro-N-4-[4-oxo-3-(phenylamino)-6-(pyridin-4-ylcarbonyl)-4,5,6,7-tetrahydro-1H-pyrrolo[2,3-c]pyridin-2-yl]pyridin-2-ylcyclopropanecarboxamide]	7 nM
